According to ChEMBL document CHEMBL1201862, “PubChem BioAssay data set” (2004):
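Values below derive from 48-hour exposures of cells grown in 96-well plates, with endpoints linearly interpolated between the two concentrations bracketing the appropriate inhibition level. The concentration for 50% growth inhibition is given as GI50.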 The source made the active and inactive calls. Cut-off read from the data, not from the text of the source: active = GI50 up to about 1.1 µM and inactive = higher.

Tests used:
Experiment in all cases: growth of human tumour cells (NCI), 48 h
Malme-3M = test system: Malme-3M
OVCAR-4 = test system: OVCAR-4
SF-295 = test system: SF-295
MDA-MB-231 = test system: MDA-MB-231
SW-620 = test system: SW-620
SK-OV-3 = test system: SK-OV-3
NCI-H460 = test system: NCI-H460
NCI/ADR-RES = test system: NCI/ADR-RES
SF-539 = test system: SF-539
UO-31 = test system: UO-31
SN12C = test system: SN12C
EKVX = test system: EKVX
COLO 205 = test system: COLO 205
HT-29 = test system: HT-29
TK-10 = test system: TK-10
HCT-116 = test system: HCT-116
HOP-92 = test system: HOP-92
IGROV-1 = test system: IGROV-1
HOP-62 = test system: HOP-62
SNB-75 = test system: SNB-75
RPMI-8226 = test system: RPMI-8226
MOLT-4 = test system: MOLT-4
SK-MEL-28 = test system: SK-MEL-28
Hs-578T = test system: Hs-578T
HCT-15 = test system: HCT-15
OVCAR-5 = test system: OVCAR-5
LOX IMVI = test system: LOX IMVI
UACC-257 = test system: UACC-257
A549 = test system: A549
786-0 = test system: 786-0
K562 = test system: K562
SK-MEL-2 = test system: SK-MEL-2
NCI-H23 = test system: NCI-H23
PC-3 = test system: PC-3
RXF 393 = test system: RXF 393
HL-60 = test system: HL-60
SK-MEL-5 = test system: SK-MEL-5
T47D = test system: T47D
ACHN = test system: ACHN
UACC-62 = test system: UACC-62
NCI-H522 = test system: NCI-H522
HCC 2998 = test system: HCC 2998
CAKI-1 = test system: CAKI-1
MDA-MB-435 = test system: MDA-MB-435
SR = test system: SR
CCRF-CEM = test system: CCRF-CEM
A498 = test system: A498
DU-145 = test system: DU-145
U-251 = test system: U-251
KM12 = test system: KM12
SNB-19 = test system: SNB-19
SF-268 = test system: SF-268
OVCAR-8 = test system: OVCAR-8
M14 = test system: M14
OVCAR-3 = test system: OVCAR-3
MDA-N = test system: MDA-N
MCF7 = test system: MCF7

In the case of Cc1ccc(-c2nc3n(c2/C=N\N=C(N)N)CCS3)cc1, the GI50 (Malme-3M) is reported as 17.3 µM (inactive), the GI50 (OVCAR-4) is reported as 16.6 µM (inactive) and the GI50 (SF-295) is reported as 12.2 µM (inactive). For the same molecule, the GI50 (MDA-MB-231) was 16.3 µM (inactive), the GI50 (SW-620) was 15.7 µM (inactive) and the GI50 (SK-OV-3) was 15.3 µM (inactive). The GI50 (NCI-H460) was 18 µM (inactive), the GI50 (NCI/ADR-RES) was 29.9 µM (inactive) and the GI50 (SF-539) was 15.2 µM (inactive). For the same molecule, the GI50 (UO-31) was 16.7 µM (inactive), the GI50 (SN12C) was 16.1 µM (inactive) and the GI50 (EKVX) was 16 µM (inactive). For the same molecule, the GI50 (COLO 205) was 14.5 µM (inactive), the GI50 (HT-29) was 14 µM (inactive) and the GI50 (TK-10) was 19 µM (inactive). For the same molecule, the GI50 (HCT-116) was 14.8 µM (inactive), the GI50 (HOP-92) was 19.4 µM (inactive) and the GI50 (IGROV-1) was 15 µM (inactive). The GI50 (HOP-62) was 15 µM (inactive), the GI50 (SNB-75) was 10.9 µM (inactive) and the GI50 (RPMI-8226) was 32.8 µM (inactive). The GI50 (MOLT-4) was 45.8 µM (inactive), the GI50 (SK-MEL-28) was 15.7 µM (inactive) and the GI50 (Hs-578T) was 18.1 µM (inactive). For the same molecule, the GI50 (HCT-15) was 17.5 µM, the GI50 (OVCAR-5) was 16.3 µM (inactive) and the GI50 (LOX IMVI) was 16.7 µM (inactive). The GI50 (UACC-257) was 16.6 µM (inactive), the GI50 (A549) was 15.9 µM (inactive) and the GI50 (786-0) was 15.8 µM (inactive). For the same molecule, the GI50 (K562) was 19.8 µM (inactive), the GI50 (SK-MEL-2) was 12.9 µM (inactive) and the GI50 (NCI-H23) was 15.8 µM (inactive). The GI50 (PC-3) was 15 µM (inactive), the GI50 (RXF 393) was 15.8 µM (inactive) and the GI50 (HL-60) was 33.3 µM (inactive). For the same molecule, the GI50 (SK-MEL-5) was 14.2 µM (inactive), the GI50 (T47D) was 13.2 µM (inactive) and the GI50 (ACHN) was 15 µM (inactive). For the same molecule, the GI50 (UACC-62) was 18.1 µM (inactive), the GI50 (NCI-H522) was 2.79 µM (inactive) and the GI50 (HCC 2998) was 11.6 µM (inactive). For the same molecule, the GI50 (CAKI-1) was 17.9 µM (inactive), the GI50 (MDA-MB-435) was 15.5 µM (inactive) and the GI50 (SR) was 59 µM (inactive). For the same molecule, the GI50 (CCRF-CEM) was 22.1 µM (inactive), the GI50 (A498) was 16.8 µM (inactive) and the GI50 (DU-145) was 13.8 µM (inactive). The GI50 (U-251) was 14.9 µM (inactive), the GI50 (KM12) was 15 µM (inactive) and the GI50 (SNB-19) was 15.1 µM (inactive). For the same molecule, the GI50 (SF-268) was 14.9 µM (inactive) and the GI50 (OVCAR-8) was 15.6 µM (inactive).

For CC1(C)CS(=O)(=O)CC(C)(C)C(=N/N)/C1=N\N, the GI50 (Malme-3M) was > 100 µM (inactive), the GI50 (OVCAR-4) was > 100 µM (inactive) and the GI50 (SF-295) was > 100 µM (inactive). For the same molecule, the GI50 (SW-620) was > 100 µM (inactive), the GI50 (SK-OV-3) was > 100 µM (inactive) and the GI50 (NCI-H460) was > 100 µM (inactive). For the same molecule, the GI50 (NCI/ADR-RES) was > 100 µM (inactive), the GI50 (SF-539) was > 100 µM (inactive) and the GI50 (SN12C) was > 100 µM (inactive). The GI50 (EKVX) was > 100 µM (inactive), the GI50 (COLO 205) was > 100 µM (inactive) and the GI50 (M14) was > 100 µM (inactive). For the same molecule, the GI50 (HT-29) was > 100 µM (inactive), the GI50 (TK-10) was > 100 µM (inactive) and the GI50 (HCT-116) was > 100 µM (inactive). For the same molecule, the GI50 (HOP-92) was > 100 µM (inactive), the GI50 (IGROV-1) was > 100 µM (inactive) and the GI50 (HOP-62) was > 100 µM (inactive). The GI50 (SNB-75) was > 100 µM (inactive), the GI50 (SK-MEL-28) was > 100 µM (inactive) and the GI50 (Hs-578T) was > 100 µM (inactive). For the same molecule, the GI50 (HCT-15) was > 100 µM, the GI50 (OVCAR-5) was > 100 µM (inactive) and the GI50 (LOX IMVI) was > 100 µM (inactive). The GI50 (UACC-257) was > 100 µM (inactive), the GI50 (A549) was > 100 µM (inactive) and the GI50 (786-0) was > 100 µM (inactive). For the same molecule, the GI50 (K562) was > 100 µM (inactive), the GI50 (SK-MEL-2) was > 100 µM (inactive) and the GI50 (NCI-H23) was > 100 µM (inactive). The GI50 (PC-3) was > 100 µM (inactive), the GI50 (HL-60) was > 100 µM (inactive) and the GI50 (SK-MEL-5) was > 100 µM (inactive). For the same molecule, the GI50 (T47D) was > 100 µM (inactive), the GI50 (OVCAR-3) was > 100 µM (inactive) and the GI50 (ACHN) was > 100 µM (inactive). For the same molecule, the GI50 (UACC-62) was > 100 µM (inactive), the GI50 (NCI-H522) was > 100 µM (inactive) and the GI50 (HCC 2998) was > 100 µM (inactive). For the same molecule, the GI50 (CAKI-1) was > 100 µM (inactive), the GI50 (MDA-MB-435) was > 100 µM (inactive) and the GI50 (SR) was > 100 µM (inactive). For the same molecule, the GI50 (A498) was > 100 µM (inactive), the GI50 (DU-145) was > 100 µM (inactive) and the GI50 (U-251) was > 100 µM (inactive). The GI50 (MDA-N) was > 100 µM (inactive), the GI50 (KM12) was > 100 µM (inactive) and the GI50 (SNB-19) was > 100 µM (inactive). For the same molecule, the GI50 (MCF7) was > 100 µM (inactive), the GI50 (SF-268) was > 100 µM (inactive) and the GI50 (OVCAR-8) was > 100 µM (inactive).
